One block for each molecule: values may come before it.
Legend:
Assay type in all cases: ADME
[1] = molecular target: T1, Solute carrier organic anion transporter family member 1A2 (Homo sapiens, UniProt P46721); experiment: Inhibitors of transporters of clinical importance in the absorption and disposition of drugs, OATP1A2
T1 sequence (P46721 whole entry): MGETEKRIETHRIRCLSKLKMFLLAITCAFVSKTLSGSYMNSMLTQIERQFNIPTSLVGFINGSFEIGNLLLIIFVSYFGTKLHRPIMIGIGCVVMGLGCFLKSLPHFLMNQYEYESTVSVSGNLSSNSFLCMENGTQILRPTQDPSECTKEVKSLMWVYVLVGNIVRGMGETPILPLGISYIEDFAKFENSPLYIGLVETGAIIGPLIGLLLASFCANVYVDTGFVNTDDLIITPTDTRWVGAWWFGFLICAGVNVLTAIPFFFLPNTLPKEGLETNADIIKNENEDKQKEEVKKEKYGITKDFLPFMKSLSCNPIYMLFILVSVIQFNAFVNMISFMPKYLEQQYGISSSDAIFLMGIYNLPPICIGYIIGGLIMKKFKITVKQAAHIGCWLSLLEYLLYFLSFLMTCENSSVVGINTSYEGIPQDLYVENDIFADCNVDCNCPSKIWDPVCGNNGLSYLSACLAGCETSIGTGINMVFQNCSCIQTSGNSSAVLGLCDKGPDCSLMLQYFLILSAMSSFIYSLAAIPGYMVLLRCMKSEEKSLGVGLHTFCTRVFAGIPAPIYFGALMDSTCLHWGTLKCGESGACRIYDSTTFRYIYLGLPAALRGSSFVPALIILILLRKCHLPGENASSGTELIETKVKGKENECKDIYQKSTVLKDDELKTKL

[2] = molecular target: T2, Solute carrier organic anion transporter family member 1B1 (Homo sapiens, UniProt Q9Y6L6); experiment: Inhibitors of transporters of clinical importance in the absorption and disposition of drugs, OATP1B1
T2 sequence (Q9Y6L6 whole entry): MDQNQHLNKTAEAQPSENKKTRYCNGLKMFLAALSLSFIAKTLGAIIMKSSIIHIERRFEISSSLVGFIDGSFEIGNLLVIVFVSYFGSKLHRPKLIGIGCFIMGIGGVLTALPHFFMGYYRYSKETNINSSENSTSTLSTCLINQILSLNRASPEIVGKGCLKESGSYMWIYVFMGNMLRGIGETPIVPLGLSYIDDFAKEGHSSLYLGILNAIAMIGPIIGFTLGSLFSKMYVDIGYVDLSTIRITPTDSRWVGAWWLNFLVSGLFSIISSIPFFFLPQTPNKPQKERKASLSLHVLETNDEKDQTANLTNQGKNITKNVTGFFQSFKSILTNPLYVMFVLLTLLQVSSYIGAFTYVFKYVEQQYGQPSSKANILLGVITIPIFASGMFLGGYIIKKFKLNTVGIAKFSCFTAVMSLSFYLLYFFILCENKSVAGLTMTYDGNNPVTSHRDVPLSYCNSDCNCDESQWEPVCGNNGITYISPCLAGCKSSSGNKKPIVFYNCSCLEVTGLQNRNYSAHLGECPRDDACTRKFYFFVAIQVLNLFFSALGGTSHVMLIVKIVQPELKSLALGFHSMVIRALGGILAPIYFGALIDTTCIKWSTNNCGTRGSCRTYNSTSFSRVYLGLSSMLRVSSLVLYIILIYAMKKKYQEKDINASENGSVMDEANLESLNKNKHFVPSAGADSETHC

[3] = molecular target: T3, ATP-binding cassette sub-family C member 3 (Homo sapiens, UniProt O15438); experiment: Inhibitors of transporters of clinical importance in the absorption and disposition of drugs, MPR3
T3 sequence (O15438 whole entry): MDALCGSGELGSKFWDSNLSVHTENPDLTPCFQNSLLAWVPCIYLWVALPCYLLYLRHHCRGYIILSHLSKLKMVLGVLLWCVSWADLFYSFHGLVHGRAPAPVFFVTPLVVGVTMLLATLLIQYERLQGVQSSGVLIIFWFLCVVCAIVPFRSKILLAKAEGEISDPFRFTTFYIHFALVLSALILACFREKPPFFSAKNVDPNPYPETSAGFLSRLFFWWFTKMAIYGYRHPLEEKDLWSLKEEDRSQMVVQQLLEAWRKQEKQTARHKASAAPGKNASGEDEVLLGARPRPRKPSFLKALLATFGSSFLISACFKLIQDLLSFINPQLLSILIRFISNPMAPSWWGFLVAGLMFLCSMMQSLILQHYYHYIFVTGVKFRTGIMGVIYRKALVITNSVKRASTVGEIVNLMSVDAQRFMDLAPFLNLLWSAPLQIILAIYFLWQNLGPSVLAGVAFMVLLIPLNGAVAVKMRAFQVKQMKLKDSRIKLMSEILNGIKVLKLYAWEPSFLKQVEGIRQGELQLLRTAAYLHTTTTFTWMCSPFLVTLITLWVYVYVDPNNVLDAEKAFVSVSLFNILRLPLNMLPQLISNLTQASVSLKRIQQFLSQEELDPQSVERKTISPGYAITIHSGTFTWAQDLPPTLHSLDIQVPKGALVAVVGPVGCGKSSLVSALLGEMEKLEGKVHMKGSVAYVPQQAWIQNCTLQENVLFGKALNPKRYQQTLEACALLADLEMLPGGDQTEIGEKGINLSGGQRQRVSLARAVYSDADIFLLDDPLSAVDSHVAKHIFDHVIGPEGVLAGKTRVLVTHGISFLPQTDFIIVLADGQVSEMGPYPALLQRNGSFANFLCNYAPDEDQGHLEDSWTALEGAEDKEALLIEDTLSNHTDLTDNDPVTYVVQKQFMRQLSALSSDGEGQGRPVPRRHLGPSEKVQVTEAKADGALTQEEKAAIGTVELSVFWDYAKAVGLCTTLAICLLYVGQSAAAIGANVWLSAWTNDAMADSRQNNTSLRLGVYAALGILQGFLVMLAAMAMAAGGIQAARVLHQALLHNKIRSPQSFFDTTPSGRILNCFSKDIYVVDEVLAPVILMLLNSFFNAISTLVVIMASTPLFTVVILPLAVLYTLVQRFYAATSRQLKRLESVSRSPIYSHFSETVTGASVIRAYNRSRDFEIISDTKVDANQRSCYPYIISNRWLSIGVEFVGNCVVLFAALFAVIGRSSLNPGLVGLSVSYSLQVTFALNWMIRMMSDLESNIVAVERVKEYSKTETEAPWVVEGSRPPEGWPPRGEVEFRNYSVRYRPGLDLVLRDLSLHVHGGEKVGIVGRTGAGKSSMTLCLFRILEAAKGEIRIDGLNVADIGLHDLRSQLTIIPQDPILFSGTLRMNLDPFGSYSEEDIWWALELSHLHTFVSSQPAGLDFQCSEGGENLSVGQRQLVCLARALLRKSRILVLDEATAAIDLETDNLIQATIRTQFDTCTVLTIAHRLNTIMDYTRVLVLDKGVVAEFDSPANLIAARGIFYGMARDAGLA

[4] = molecular target: T4, ATP-binding cassette sub-family C member 2 (Homo sapiens, UniProt Q92887); experiment: Inhibitors of transporters of clinical importance in the absorption and disposition of drugs, MRP2
T4 sequence (Q92887 whole entry): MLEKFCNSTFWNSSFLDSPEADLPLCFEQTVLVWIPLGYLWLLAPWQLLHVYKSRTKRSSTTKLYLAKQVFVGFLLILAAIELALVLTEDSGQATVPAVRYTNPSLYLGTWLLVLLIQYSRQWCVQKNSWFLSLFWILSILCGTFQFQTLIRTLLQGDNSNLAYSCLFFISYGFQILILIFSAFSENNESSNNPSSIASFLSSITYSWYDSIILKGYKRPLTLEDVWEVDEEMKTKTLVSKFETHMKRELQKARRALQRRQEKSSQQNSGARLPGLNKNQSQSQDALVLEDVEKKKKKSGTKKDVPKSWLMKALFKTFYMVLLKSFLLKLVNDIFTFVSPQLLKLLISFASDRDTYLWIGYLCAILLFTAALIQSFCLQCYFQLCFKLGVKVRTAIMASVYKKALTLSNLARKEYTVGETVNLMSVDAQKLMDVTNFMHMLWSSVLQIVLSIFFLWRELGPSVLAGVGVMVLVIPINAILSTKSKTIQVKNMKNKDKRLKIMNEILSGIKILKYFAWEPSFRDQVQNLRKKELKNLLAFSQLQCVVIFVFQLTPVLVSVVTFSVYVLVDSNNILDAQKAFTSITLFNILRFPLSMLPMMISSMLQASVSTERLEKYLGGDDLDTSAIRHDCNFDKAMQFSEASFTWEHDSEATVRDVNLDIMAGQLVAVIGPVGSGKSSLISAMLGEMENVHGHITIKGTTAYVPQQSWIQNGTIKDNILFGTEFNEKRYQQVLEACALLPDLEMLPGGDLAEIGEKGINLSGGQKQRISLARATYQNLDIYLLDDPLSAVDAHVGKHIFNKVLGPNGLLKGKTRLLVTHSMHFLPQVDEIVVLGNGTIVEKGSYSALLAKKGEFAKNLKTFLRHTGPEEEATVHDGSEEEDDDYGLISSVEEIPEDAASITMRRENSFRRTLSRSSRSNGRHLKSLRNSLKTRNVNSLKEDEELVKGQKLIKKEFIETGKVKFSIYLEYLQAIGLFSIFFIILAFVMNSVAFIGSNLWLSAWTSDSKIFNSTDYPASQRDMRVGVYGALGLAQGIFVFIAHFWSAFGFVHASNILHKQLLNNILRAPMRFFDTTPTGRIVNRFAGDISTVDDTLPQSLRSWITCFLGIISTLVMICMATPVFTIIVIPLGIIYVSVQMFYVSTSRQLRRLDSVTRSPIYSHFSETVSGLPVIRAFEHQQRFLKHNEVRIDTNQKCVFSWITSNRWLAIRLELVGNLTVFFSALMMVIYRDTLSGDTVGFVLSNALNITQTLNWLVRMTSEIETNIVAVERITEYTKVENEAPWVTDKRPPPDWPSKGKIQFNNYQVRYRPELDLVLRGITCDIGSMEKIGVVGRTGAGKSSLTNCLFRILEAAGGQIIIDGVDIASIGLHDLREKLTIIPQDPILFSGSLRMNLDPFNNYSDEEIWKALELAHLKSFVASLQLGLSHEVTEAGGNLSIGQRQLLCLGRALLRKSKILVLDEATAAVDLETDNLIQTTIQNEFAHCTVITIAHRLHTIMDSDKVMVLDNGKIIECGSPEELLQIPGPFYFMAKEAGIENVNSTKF

[5] = molecular target: T5, Solute carrier organic anion transporter family member 1B3 (Homo sapiens, UniProt Q9NPD5); experiment: Substrates of transporters of clinical importance in the absorption and disposition of drugs, OATP1B3
T5 sequence (Q9NPD5 whole entry): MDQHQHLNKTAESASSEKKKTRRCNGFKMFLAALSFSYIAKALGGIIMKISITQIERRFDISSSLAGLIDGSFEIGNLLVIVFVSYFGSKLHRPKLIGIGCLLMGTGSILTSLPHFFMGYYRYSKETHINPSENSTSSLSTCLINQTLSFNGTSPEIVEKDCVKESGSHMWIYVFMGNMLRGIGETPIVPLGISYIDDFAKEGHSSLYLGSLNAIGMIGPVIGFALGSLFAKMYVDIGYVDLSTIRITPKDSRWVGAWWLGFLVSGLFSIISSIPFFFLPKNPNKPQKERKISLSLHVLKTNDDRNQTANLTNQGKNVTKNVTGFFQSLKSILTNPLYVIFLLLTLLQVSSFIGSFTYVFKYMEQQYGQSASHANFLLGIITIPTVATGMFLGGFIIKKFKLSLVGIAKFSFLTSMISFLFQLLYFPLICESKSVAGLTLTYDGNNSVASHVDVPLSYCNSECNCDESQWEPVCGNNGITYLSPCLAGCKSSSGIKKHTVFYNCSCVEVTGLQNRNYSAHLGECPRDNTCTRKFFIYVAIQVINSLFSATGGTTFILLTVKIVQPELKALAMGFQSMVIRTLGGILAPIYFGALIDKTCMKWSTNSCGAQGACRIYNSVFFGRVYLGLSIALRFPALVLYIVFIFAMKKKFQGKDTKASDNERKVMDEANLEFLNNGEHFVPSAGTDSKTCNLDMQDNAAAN

[6] = molecular target: T3, ATP-binding cassette sub-family C member 3; experiment: Substrates of transporters of clinical importance in the absorption and disposition of drugs, MPR3
[7] = molecular target: T2, Solute carrier organic anion transporter family member 1B1; experiment: Substrates of transporters of clinical importance in the absorption and disposition of drugs, OATP1B1
[8] = molecular target: T6, Broad substrate specificity ATP-binding cassette transporter ABCG2 (Homo sapiens, UniProt Q9UNQ0); experiment: Inhibitors of transporters of clinical importance in the absorption and disposition of drugs, BCRP
T6 sequence (Q9UNQ0 whole entry): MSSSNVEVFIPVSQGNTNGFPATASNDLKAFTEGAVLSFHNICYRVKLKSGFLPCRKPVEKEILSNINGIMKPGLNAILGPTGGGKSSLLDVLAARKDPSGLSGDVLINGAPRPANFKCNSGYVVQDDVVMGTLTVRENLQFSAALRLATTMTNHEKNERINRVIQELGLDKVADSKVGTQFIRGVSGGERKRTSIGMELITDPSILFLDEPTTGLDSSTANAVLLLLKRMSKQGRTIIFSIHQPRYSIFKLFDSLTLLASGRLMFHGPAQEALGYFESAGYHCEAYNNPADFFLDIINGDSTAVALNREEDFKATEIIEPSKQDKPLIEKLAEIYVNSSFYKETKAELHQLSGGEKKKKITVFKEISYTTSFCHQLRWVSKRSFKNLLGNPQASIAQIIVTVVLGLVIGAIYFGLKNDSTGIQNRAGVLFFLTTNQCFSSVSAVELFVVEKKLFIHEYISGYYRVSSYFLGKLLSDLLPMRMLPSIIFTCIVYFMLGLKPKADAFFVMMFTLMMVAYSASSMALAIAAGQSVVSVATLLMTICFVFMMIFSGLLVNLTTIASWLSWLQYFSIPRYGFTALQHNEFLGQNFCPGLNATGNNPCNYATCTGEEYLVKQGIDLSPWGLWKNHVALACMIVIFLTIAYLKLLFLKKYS

[9] = molecular target: T7, Solute carrier organic anion transporter family member 2B1 (Homo sapiens, UniProt O94956); experiment: Substrates of transporters of clinical importance in the absorption and disposition of drugs, OATP2B1
T7 sequence (O94956 whole entry): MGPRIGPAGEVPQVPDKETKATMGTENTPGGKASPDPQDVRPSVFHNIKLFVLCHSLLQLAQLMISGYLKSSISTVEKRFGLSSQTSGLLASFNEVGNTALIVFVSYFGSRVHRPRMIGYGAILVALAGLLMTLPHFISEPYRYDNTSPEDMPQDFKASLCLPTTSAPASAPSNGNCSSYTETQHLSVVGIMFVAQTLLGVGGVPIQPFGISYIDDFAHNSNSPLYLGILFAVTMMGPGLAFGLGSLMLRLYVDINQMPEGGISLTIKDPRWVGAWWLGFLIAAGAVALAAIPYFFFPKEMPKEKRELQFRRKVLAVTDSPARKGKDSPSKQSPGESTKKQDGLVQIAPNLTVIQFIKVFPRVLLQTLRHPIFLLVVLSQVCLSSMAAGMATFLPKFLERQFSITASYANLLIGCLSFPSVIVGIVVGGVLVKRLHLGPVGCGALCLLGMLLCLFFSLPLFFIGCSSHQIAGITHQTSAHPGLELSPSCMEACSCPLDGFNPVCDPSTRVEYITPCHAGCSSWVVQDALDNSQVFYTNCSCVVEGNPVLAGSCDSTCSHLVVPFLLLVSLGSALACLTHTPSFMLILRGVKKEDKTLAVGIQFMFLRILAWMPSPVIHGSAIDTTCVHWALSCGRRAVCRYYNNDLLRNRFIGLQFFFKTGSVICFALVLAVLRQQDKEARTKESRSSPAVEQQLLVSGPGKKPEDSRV

[10] = molecular target: T1, Solute carrier organic anion transporter family member 1A2; experiment: Substrates of transporters of clinical importance in the absorption and disposition of drugs, OATP1A2
[11] = molecular target: T4, ATP-binding cassette sub-family C member 2; experiment: Substrates of transporters of clinical importance in the absorption and disposition of drugs, MRP2
[12] = molecular target: T6, Broad substrate specificity ATP-binding cassette transporter ABCG2; experiment: Substrates of transporters of clinical importance in the absorption and disposition of drugs, BCRP
[13] = molecular target: T8, ATP-binding cassette sub-family C member 4 (Homo sapiens, UniProt O15439); experiment: Substrates of transporters of clinical importance in the absorption and disposition of drugs, MRP4
T8 sequence (O15439 whole entry): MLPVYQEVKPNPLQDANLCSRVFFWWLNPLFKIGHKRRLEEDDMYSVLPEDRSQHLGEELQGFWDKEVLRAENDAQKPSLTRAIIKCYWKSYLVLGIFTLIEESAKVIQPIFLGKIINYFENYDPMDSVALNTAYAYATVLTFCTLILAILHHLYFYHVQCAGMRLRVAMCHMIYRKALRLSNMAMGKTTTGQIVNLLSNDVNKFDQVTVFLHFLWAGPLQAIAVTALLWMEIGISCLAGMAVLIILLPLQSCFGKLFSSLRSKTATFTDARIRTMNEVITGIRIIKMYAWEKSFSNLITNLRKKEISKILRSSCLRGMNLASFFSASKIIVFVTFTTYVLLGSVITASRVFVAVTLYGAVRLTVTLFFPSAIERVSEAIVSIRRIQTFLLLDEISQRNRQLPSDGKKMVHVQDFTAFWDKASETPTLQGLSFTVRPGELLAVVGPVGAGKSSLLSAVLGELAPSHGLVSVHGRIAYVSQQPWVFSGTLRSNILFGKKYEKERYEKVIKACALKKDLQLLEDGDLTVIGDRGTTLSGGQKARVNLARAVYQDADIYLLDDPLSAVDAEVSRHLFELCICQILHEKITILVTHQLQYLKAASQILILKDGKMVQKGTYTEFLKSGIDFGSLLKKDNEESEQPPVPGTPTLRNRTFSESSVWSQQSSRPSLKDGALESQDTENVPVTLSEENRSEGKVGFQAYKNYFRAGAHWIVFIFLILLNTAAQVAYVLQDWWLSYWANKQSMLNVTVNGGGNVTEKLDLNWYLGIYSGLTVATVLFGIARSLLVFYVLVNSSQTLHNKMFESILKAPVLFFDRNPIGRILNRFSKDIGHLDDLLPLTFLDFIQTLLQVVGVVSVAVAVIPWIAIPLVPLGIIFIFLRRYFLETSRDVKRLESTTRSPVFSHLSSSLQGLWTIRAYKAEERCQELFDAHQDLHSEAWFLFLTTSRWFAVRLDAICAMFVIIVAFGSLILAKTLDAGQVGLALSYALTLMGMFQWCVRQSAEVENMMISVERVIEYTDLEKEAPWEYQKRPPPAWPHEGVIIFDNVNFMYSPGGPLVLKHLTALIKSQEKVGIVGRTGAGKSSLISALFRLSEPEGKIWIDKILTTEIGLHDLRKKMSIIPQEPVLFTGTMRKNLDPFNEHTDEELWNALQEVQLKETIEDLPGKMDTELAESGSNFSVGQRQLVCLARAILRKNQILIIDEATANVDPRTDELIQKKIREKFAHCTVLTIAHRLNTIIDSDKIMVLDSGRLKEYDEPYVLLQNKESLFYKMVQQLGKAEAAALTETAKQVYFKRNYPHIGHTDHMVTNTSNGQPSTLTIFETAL

- Activity [3]: transporter inhibitor
- Activity [4]: transporter inhibitor
SMILES: CC(C)Nc1cccnc1N1CCN(C(=O)c2cc3cc(NS(C)(=O)=O)ccc3[nH]2)CC1 [DELAVIRDINE]

- Activity [3]: transporter inhibitor
- Activity [4]: transporter inhibitor
SMILES: O=C1Nc2ccc(Cl)cc2[C@@](C#CC2CC2)(C(F)(F)F)O1 [EFAVIRENZ]

- Activity [8]: transporter inhibitor
SMILES: C[C@]12CC[C@@H]3c4ccc(O)cc4CC[C@H]3[C@@H]1CC[C@@H]2O [ESTRADIOL]

- Activity [8]: transporter inhibitor
SMILES: C[C@]12CC[C@@H]3c4ccc(O)cc4CC[C@H]3[C@@H]1CCC2=O [ESTRONE]

- Activity [5]: transporter substrate
- Activity [6]: transporter substrate
- Activity [9]: transporter substrate
- Activity [10]: transporter substrate
SMILES: CC(C)(C(=O)O)c1ccc(C(O)CCCN2CCC(C(O)(c3ccccc3)c3ccccc3)CC2)cc1 (stereo unspecified) [FEXOFENADINE]

The next lines start with the molecule.

SMILES: CC(C)(C)NC(=O)[C@@H]1C[C@@H]2CCCC[C@@H]2CN1C[C@@H](O)[C@H](Cc1ccccc1)NC(=O)[C@H](CC(N)=O)NC(=O)c1ccc2ccccc2n1
- Activity [1]: transporter inhibitor
- Activity [2]: transporter inhibitor

SMILES: C[C@]12CC[C@@H]3c4ccc(O)cc4CC[C@H]3[C@@H]1CC[C@@H]2O[C@@H]1O[C@H](C(=O)O)[C@@H](O)[C@H](O)[C@H]1O [ESTRADIOL 17B GLUCURONIDE]
- Activity [5]: transporter substrate
- Activity [6]: transporter substrate
- Activity [7]: transporter substrate

SMILES: COc1ccc2c3c([nH]c2c1)[C@H](C=C(C)C)N1C(=O)[C@@H]2CCCN2C(=O)[C@@H]1C3 [FUMITREMORGIN]
- Activity [8]: transporter inhibitor

SMILES: CN(Cc1cnc2nc(N)nc(N)c2n1)c1ccc(C(=O)N[C@@H](CCC(=O)O)C(=O)O)cc1 [METHOTREXATE]
- Activity [11]: transporter substrate
- Activity [12]: transporter substrate
- Activity [6]: transporter substrate
- Activity [10]: transporter substrate
- Activity [13]: transporter substrate
